Source: patent US9321760B2 (Merck Patent GmbH, priority 2011, dated 2016)
pIC50: −log10 of the molar value.

Biological target: P70S6K (T412E mutant) (Homo sapiens (Human), UniProt P23443, T412E)
Test: P70S6K enzyme assay
Assay type: biochemical
Conditions: 3 nM P70S6K T412E mutant, 24 μM ATP, 1 μM FITC-AHA-AKRRRLSSLRA-OH substrate peptide, 90 min at 25° C.
Method in brief: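 IC50s come from mobility-shift separation of phospho-product from FITC-AHA-AKRRRLSSLRA-OH substrate (1 μM) after the reaction was quenched with 10 mM EDTA. The reaction used 3 nM T412E-mutant enzyme and 24 μM ATP, running 90 min at 25° C in 100 mM Hepes pH 7.5 buffer.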

P70S6K (T412E mutant), sequence (P23443 whole entry T412E): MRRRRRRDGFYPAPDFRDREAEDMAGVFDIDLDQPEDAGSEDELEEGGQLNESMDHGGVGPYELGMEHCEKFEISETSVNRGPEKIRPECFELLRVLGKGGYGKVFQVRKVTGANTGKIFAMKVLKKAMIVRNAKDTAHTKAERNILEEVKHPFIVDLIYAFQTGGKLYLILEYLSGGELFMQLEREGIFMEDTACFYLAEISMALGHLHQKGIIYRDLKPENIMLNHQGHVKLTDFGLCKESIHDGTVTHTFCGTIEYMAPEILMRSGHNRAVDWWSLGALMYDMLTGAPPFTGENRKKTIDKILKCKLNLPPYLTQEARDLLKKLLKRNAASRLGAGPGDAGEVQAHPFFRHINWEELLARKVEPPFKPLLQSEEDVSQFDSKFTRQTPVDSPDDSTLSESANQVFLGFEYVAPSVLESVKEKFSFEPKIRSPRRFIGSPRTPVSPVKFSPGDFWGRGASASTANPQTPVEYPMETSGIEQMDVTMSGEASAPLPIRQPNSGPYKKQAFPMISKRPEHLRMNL

Structure (SMILES)	pIC50
CN(C)CC(c1ccc(C(F)(F)F)cc1)N1CCN(c2ncnc(N)c2C2CC2)CC1 (stereo not drawn) [Example 28, 5-Cyclopropyl-6-(4-(2-(dimethylamino)-1-(4-(trifluoromethyl)phenyl)ethyl)piperazin-1-yl)pyrimidin-4-amine]	6.59
Nc1ncnc(N2CCN(C(CN3CCCCC3)c3cccc(C(F)(F)F)c3)CC2)c1-c1ccc(F)cc1 (stereo not drawn) [Example 65, 5-(4-Fluorophenyl)-6{4-[1-(3-trifluoro-phenyl)-2-piperidin-1-yl-ethyl]-piperazin-1-yl}-pyrimidin-4-ylamine]	6.92
Nc1ncnc(N2CCN(C(CN3CCC3)c3ccc(C(F)(F)F)cc3)CC2)c1-c1ccc(F)cc1 (stereo not drawn) [Example 27, 6-(4-(2-(azetidin-1-yl)-1-(4-(trifluoromethyl)phenyl)ethyl)piperazin-1-yl)-5-(4-fluorophenyl)pyrimidin-4-amine]	8.38
NCC(c1ccc(Cl)c(Cl)c1)N1CCN(c2ncnc(N)c2-c2ccc(F)cc2)CC1 (stereo not drawn) [Example 157, 6-{4-[2-Amino-1-(3,4-dichloro-phenyl)-ethyl]-piperazin-1-yl}-5-(4-fluoro-phenyl)-pyrimidin-4-ylamine]	8.22
N#Cc1c(N)ncnc1N1CCC(N)(CNC(=O)c2ccc(F)cc2F)C1 (stereo not drawn) [Example 196, N-[3-Amino-1-(6-amino-5-cyano-pyrimidin-4-yl)-pyrrolidin-3-ylmethyl]-2,4-difluoro-benzamide]	7.30
COC(=O)c1ccc([C@@H](CN2CCC2)N2CCN(c3ncnc(N)c3-c3ccc(F)cc3)CC2)cc1 [Example 110, 4-((S)-1-{4-[6-Amino-5-(4-fluoro-phenyl)-pyrimidin-4-yl]-piperazin-1-yl}-2-azetidin-1-yl-ethyl)-benzoic acid methyl ester]	6.35
Nc1ncnc(N2CCC(N)(C(=O)N[C@@H](CCO)c3ccc(C(F)(F)F)cc3)CC2)c1Cl [Example 223, 4-Amino-1-(6-amino-5-chloro-pyrimidin-4-yl)-piperidine-4-carboxylic acid [(S)-3-hydroxy-1-(4-trifluoromethyl-phenyl)-propyl]-amide]	4.66
CN(C)CC(c1ccc(C(F)(F)F)cc1)N1CCN(c2ncnc(N)c2-c2ccc(C(C)(C)O)cc2)CC1 (stereo not drawn) [Example 22, 2-(4-(4-amino-6-(4-(2-(dimethylamino)-1-(4-(trifluoromethyl)phenyl)ethyl)-piperazin-1-yl)pyrimidin-5-yl)phenyl)propan-2-ol]	7.70
Nc1ncnc(N2CCN(C(CN3CCC3)c3ccc4c(c3)CCCC4)CC2)c1-c1ccc(F)cc1 (stereo not drawn) [Example 123, 6-{4-[2-Azetidin-1-yl-1-(5,6,7,8-tetrahydro-naphthalen-2-yl)-ethyl]-piperazin-1-yl}-5-(4-fluoro-phenyl)-pyrimidin-4-ylamine]	6.44
N#CC(C1CCCCC1)N1CCN(c2ncnc(N)c2-c2ccc(F)cc2)CC1 (stereo not drawn) [Example 191, {4-[6-Amino-5-(4-fluoro-phenyl)-pyrimidin-4-yl]-piperazin-1-yl}-cyclohexyl-acetonitrile]	6.70
NCC(c1ccccc1)N1CCN(c2ncnc(N)c2Br)CC1 (stereo not drawn) [Example 5, 6-[4-(2-Amino-1-phenyl-ethyl)-piperazin-1-yl]-5-bromo-pyrimidin-4-ylamine]	6.48
Nc1ncnc(N2CCC(N)(C(=O)N[C@@H](CCO)c3ccccc3)CC2)c1Cl [Example 228, 4-Amino-1-(6-amino-5-chloro-pyrimidin-4-yl)-piperidine-4-carboxylic acid ((S)-3-hydroxy-1-phenyl-propyl)-amide]	5.55
